Test system: 171881-019-R-J1-PDC tumor spheroids, viability
Assay: Anticancer human tumor 171881-019-R-J1-PDC patient-derived invasive breast carcinoma cell line growth inhibition [GQUAD]
Conditions: spheroids with HUVEC and MSC; for IC50: curve of first compound; for viability, T/C: stronger effect = lower value; active = viability on the fitted dose curve at most 10% of control; inactive = the rest
Summary of the method: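 Viability of tumor cells grown as complex spheroids with endothelial and stromal cells, exposed to drug combinations. Top concentration at or near clinical Cmax (else 10 microM), diluted in half-log increments.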

[1] = second compound 0.0316 µM, first compound 0.0316 µM
[2] = second compound 0.0316 µM, first compound 0.1 µM
[3] = second compound 0.0316 µM, first compound 0.316 µM
[4] = second compound 0.0316 µM, first compound 1 µM
[5] = second compound 0.0316 µM, first compound 3.16 µM
[6] = second compound 0.0316 µM, first compound 10 µM
[7] = second compound 0.1 µM, first compound 0.0316 µM
[8] = second compound 0.1 µM, first compound 0.1 µM
[9] = second compound 0.1 µM, first compound 0.316 µM
[10] = second compound 0.1 µM, first compound 1 µM
[11] = second compound 0.1 µM, first compound 3.16 µM
[12] = second compound 0.1 µM, first compound 10 µM
[13] = second compound 0.316 µM, first compound 0.0316 µM
[14] = second compound 0.316 µM, first compound 0.1 µM
[15] = second compound 0.316 µM, first compound 0.316 µM
[16] = second compound 0.316 µM, first compound 1 µM
[17] = second compound 0.316 µM, first compound 3.16 µM
[18] = second compound 0.316 µM, first compound 10 µM
[19] = second compound 1 µM, first compound 0.0316 µM
[20] = second compound 1 µM, first compound 0.1 µM
[21] = second compound 1 µM, first compound 0.316 µM
[22] = second compound 1 µM, first compound 1 µM
[23] = second compound 1 µM, first compound 3.16 µM
[24] = second compound 1 µM, first compound 10 µM
[25] = second compound 3.16 µM, first compound 0.0316 µM
[26] = second compound 3.16 µM, first compound 0.1 µM
[27] = second compound 3.16 µM, first compound 0.316 µM
[28] = second compound 3.16 µM, first compound 1 µM
[29] = second compound 3.16 µM, first compound 3.16 µM
[30] = second compound 3.16 µM, first compound 10 µM
[31] = second compound 10 µM, first compound 0.0316 µM
[32] = second compound 10 µM, first compound 0.1 µM
[33] = second compound 10 µM, first compound 0.316 µM
[34] = second compound 10 µM, first compound 1 µM
[35] = second compound 10 µM, first compound 3.16 µM
[36] = second compound 10 µM, first compound 10 µM
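For viability, T/C in this document: 100% = DMSO vehicle control viability.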

C=CCn1c(=O)c2cnc(Nc3ccc(N4CCN(C)CC4)cc3)nc2n1-c1cccc(C(C)(C)O)n1 + Cc1[nH]c2ccc(F)cc2c1-c1nc2c3cccnc3c3ncccc3c2[nH]1
592 nM: IC50 (second compound 0.1 µM)
132 nM: IC50 (second compound 1 µM)
370 nM: IC50 (second compound 0.316 µM)
624 nM: IC50 (second compound 0.0316 µM)
active: viability, T/C [26] 5.61% | viability, T/C [27] 5.52% | viability, T/C [28] 4.19% | viability, T/C [29] 5.08% | viability, T/C [30] 4.35%
inactive: viability, T/C [1] 91.2% | viability, T/C [2] 94% | viability, T/C [3] 77% | viability, T/C [4] 31.3% | viability, T/C [5] 21.4% | viability, T/C [6] 23.4% | viability, T/C [7] 103% | viability, T/C [8] 86% | viability, T/C [9] 68.1% | viability, T/C [10] 36.7% | viability, T/C [11] 20.5% | viability, T/C [12] 23.2% | viability, T/C [13] 78.3% | viability, T/C [14] 65.4% | viability, T/C [15] 56% | viability, T/C [16] 28.1% | viability, T/C [17] 23.1% | viability, T/C [18] 25% | viability, T/C [19] 68.1% | viability, T/C [20] 51.4% | viability, T/C [21] 42.5% | viability, T/C [22] 25.5% | viability, T/C [23] 23.4% | viability, T/C [24] 21.3% | viability, T/C [25] 11.4% | viability, T/C [31] 43.9% | viability, T/C [32] 30.7% | viability, T/C [33] 23.1% | viability, T/C [34] 17.5% | viability, T/C [35] 15.7% | viability, T/C [36] 13.6%
< 31.6 nM: IC50 (second compound 3.16 µM) | IC50 (second compound 10 µM)

CC(C)(O)C1CCC(Nc2ccc3ncc(-c4cccc(C(F)(F)F)c4)n3n2)CC1 (stereo not given) + Cc1[nH]c2ccc(F)cc2c1-c1nc2c3cccnc3c3ncccc3c2[nH]1
1820 nM: IC50 (second compound 0.1 µM)
1390 nM: IC50 (second compound 0.316 µM)
active: viability, T/C [25] 6.94% | viability, T/C [26] 4.45% | viability, T/C [27] 5.15% | viability, T/C [28] 3.84% | viability, T/C [29] 2.07% | viability, T/C [30] 0.75% | viability, T/C [36] 3.8%
< 31.6 nM: IC50 (second compound 3.16 µM) | IC50 (second compound 10 µM)
614 nM: IC50 (second compound 1 µM)
1830 nM: IC50 (second compound 0.0316 µM)
inactive: viability, T/C [1] 94.8% | viability, T/C [2] 104% | viability, T/C [3] 88.4% | viability, T/C [4] 74.5% | viability, T/C [5] 23.8% | viability, T/C [6] 32% | viability, T/C [7] 99.5% | viability, T/C [8] 96.7% | viability, T/C [9] 97.8% | viability, T/C [10] 73.5% | viability, T/C [11] 25.4% | viability, T/C [12] 31.1% | viability, T/C [13] 78.7% | viability, T/C [14] 71.6% | viability, T/C [15] 66.2% | viability, T/C [16] 60% | viability, T/C [17] 24% | viability, T/C [18] 25.4% | viability, T/C [19] 63.6% | viability, T/C [20] 47.6% | viability, T/C [21] 58.8% | viability, T/C [22] 45.2% | viability, T/C [23] 16.4% | viability, T/C [24] 10.9% | viability, T/C [31] 36.5% | viability, T/C [32] 42% | viability, T/C [33] 28.6% | viability, T/C [34] 24.1% | viability, T/C [35] 5.07%

CCCS(=O)(=O)Nc1ccc(F)c(C(=O)c2c[nH]c3ncc(-c4ccc(Cl)cc4)cc23)c1F + Cc1[nH]c2ccc(F)cc2c1-c1nc2c3cccnc3c3ncccc3c2[nH]1
5620 nM: IC50 (second compound 1 µM)
inactive: viability, T/C [1] 104% | viability, T/C [2] 106% | viability, T/C [3] 102% | viability, T/C [4] 121% | viability, T/C [5] 99% | viability, T/C [6] 46.7% | viability, T/C [7] 105% | viability, T/C [8] 106% | viability, T/C [9] 105% | viability, T/C [10] 107% | viability, T/C [11] 110% | viability, T/C [12] 43.3% | viability, T/C [13] 90.2% | viability, T/C [14] 77.2% | viability, T/C [15] 98.2% | viability, T/C [16] 93.2% | viability, T/C [17] 95.8% | viability, T/C [18] 38.1% | viability, T/C [19] 73.7% | viability, T/C [20] 60.8% | viability, T/C [21] 82.4% | viability, T/C [22] 80.7% | viability, T/C [23] 77.4% | viability, T/C [24] 25% | viability, T/C [31] 46.9% | viability, T/C [32] 45.5% | viability, T/C [33] 44.4% | viability, T/C [34] 55.2% | viability, T/C [35] 51.3% | viability, T/C [36] 18.5%
< 31.6 nM: IC50 (second compound 3.16 µM)
31.6 nM: IC50 (second compound 10 µM)
7730 nM: IC50 (second compound 0.316 µM)
8860 nM: IC50 (second compound 0.1 µM)
9320 nM: IC50 (second compound 0.0316 µM)
active: viability, T/C [25] 7.61% | viability, T/C [26] 8.32% | viability, T/C [27] 6.95% | viability, T/C [28] 5.17% | viability, T/C [29] 12.6% | viability, T/C [30] 8.93%

Cc1[nH]c2ccccc2c1CCNCc1ccc(/C=C/C(=O)NO)cc1 + Cc1[nH]c2ccc(F)cc2c1-c1nc2c3cccnc3c3ncccc3c2[nH]1
active: viability, T/C [3] 0.66% | viability, T/C [9] 0.58% | viability, T/C [15] 0.34% | viability, T/C [21] 0.35% | viability, T/C (second compound 3.16 µM, first compound 0.00316 µM) 7.8% | viability, T/C (second compound 3.16 µM, first compound 0.00999 µM) 7.35% | viability, T/C [25] 5.79% | viability, T/C (second compound 3.16 µM, first compound 0.0999 µM) 1.55% | viability, T/C [27] 0.52% | viability, T/C [33] 0.41%
49.1 nM: IC50 (second compound 0.316 µM)
< 0.999 nM: IC50 (second compound 3.16 µM) | IC50 (second compound 10 µM)
59.6 nM: IC50 (second compound 0.0316 µM)
32.5 nM: IC50 (second compound 1 µM)
64.8 nM: IC50 (second compound 0.1 µM)
inactive: viability, T/C (second compound 0.0316 µM, first compound 0.000999 µM) 109% | viability, T/C (second compound 0.0316 µM, first compound 0.00316 µM) 107% | viability, T/C (second compound 0.0316 µM, first compound 0.00999 µM) 94.6% | viability, T/C [1] 84.6% | viability, T/C (second compound 0.0316 µM, first compound 0.0999 µM) 22.5% | viability, T/C (second compound 0.1 µM, first compound 0.000999 µM) 90.7% | viability, T/C (second compound 0.1 µM, first compound 0.00316 µM) 98.2% | viability, T/C (second compound 0.1 µM, first compound 0.00999 µM) 99.5% | viability, T/C [7] 91.7% | viability, T/C (second compound 0.1 µM, first compound 0.0999 µM) 24.8% | viability, T/C (second compound 0.316 µM, first compound 0.000999 µM) 91.7% | viability, T/C (second compound 0.316 µM, first compound 0.00316 µM) 72.2% | viability, T/C (second compound 0.316 µM, first compound 0.00999 µM) 85.5% | viability, T/C [13] 63.3% | viability, T/C (second compound 0.316 µM, first compound 0.0999 µM) 27% | viability, T/C (second compound 1 µM, first compound 0.000999 µM) 66.8% | viability, T/C (second compound 1 µM, first compound 0.00316 µM) 55.9% | viability, T/C (second compound 1 µM, first compound 0.00999 µM) 63.1% | viability, T/C [19] 50.3% | viability, T/C (second compound 1 µM, first compound 0.0999 µM) 20.4% | viability, T/C (second compound 3.16 µM, first compound 0.000999 µM) 9.69% | viability, T/C (second compound 10 µM, first compound 0.000999 µM) 43.6% | viability, T/C (second compound 10 µM, first compound 0.00316 µM) 46.2% | viability, T/C (second compound 10 µM, first compound 0.00999 µM) 41.6% | viability, T/C [31] 46.7% | viability, T/C (second compound 10 µM, first compound 0.0999 µM) 13.9%

O=C(NO)c1cnc(N2CCN(S(=O)(=O)c3ccc4ccccc4c3)CC2)nc1 + Cc1[nH]c2ccc(F)cc2c1-c1nc2c3cccnc3c3ncccc3c2[nH]1
< 31.6 nM: IC50 (second compound 3.16 µM) | IC50 (second compound 10 µM)
410 nM: IC50 (second compound 0.1 µM)
341 nM: IC50 (second compound 0.316 µM)
348 nM: IC50 (second compound 0.0316 µM)
148 nM: IC50 (second compound 1 µM)
active: viability, T/C [4] 1.74% | viability, T/C [5] 0.09% | viability, T/C [6] 0.15% | viability, T/C [10] 2.75% | viability, T/C [11] 0.09% | viability, T/C [12] 0.11% | viability, T/C [16] 2.53% | viability, T/C [17] 0.14% | viability, T/C [18] 0.21% | viability, T/C [22] 1.79% | viability, T/C [23] 0.34% | viability, T/C [24] 0.4% | viability, T/C [25] 7.54% | viability, T/C [26] 5.44% | viability, T/C [27] 2.89% | viability, T/C [28] 0.17% | viability, T/C [29] 0.14% | viability, T/C [30] 0.28% | viability, T/C [34] 0.85% | viability, T/C [35] 0.2% | viability, T/C [36] 0.32%
inactive: viability, T/C [1] 93.7% | viability, T/C [2] 83.3% | viability, T/C [3] 55% | viability, T/C [7] 88.4% | viability, T/C [8] 78.7% | viability, T/C [9] 63.8% | viability, T/C [13] 73.3% | viability, T/C [14] 65.3% | viability, T/C [15] 53.4% | viability, T/C [19] 60.2% | viability, T/C [20] 49.3% | viability, T/C [21] 41.2% | viability, T/C [31] 34.9% | viability, T/C [32] 31.9% | viability, T/C [33] 24.6%

From PubChem BioAssay AID2060498 (Molecular Pharmacology Branch, DTP, NCI, 2025)
